# Test results from patent US9890152B2 (Genentech, Inc., priority 2012, dated 2018).
# Molecular target: T1, EGFR del746-750 T790M (Homo sapiens, UniProt P00533, DEL746-750/T790M)
# T1 construct: purchased Carna Biosciences 08-528
# Assay: EGFR del746-750 T790M biochemical assay (Caliper mobility shift)
# Settings: 5 μM ATP, 30 min, room temperature; apparent Ki (Morrison) converted by Cheng-Prusoff, Km of ATP 2.1 μM; read-out: EGFR(T790M/d746-750) Ki
# T1 sequence (P00533 with tags, fused parts or gaps DEL746-750/T790M limits assumed): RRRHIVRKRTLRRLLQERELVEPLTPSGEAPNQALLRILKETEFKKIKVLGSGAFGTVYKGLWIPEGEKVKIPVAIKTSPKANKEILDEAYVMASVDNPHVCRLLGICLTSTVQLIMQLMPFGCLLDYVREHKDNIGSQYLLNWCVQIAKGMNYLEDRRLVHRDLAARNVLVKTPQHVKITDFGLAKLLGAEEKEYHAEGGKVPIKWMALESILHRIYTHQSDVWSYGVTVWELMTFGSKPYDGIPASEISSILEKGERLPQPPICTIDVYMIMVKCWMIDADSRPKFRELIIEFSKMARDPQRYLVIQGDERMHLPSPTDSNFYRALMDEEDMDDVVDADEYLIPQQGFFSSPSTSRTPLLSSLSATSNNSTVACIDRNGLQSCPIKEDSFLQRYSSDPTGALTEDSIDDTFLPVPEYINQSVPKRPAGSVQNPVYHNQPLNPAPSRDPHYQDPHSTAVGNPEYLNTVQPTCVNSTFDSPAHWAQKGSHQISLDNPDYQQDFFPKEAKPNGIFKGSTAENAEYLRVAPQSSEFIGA
row,Structure (SMILES),Ki [nM]
1,"CC[C@@H](C)n1cc(C(=O)NC2CCOCC2)c2cnc(Nc3ccnc(N4CC[C@H](OC)[C@H](F)C4)n3)cc21 (single isomer, unassigned) [Example 339]",4.12
2,"Cc1nc2cnc(Nc3ccnc(-c4cn(CC5CC5)nc4Cl)n3)cc2n1C(C)C [Example 625, N-(2-(3-Chloro-1-(cyclopropylmethyl)-1H-pyrazol-4-yl)pyrimidin-4-yl)-1-isopropyl-2-methyl-1H-imidazo[4,5-c]pyridin-6-amine]",38.6
3,"CNc1nc2cnc(Nc3ccnc(N4CCC(OC)CC4)n3)cc2n1C(C)C [Example 6, 1-Isopropyl-N^6-[2-(4-methoxypiperidin-1-yl)pyrimidin-4-yl]-N^2-methyl-1H-imidazo[4,5-c]pyridine-2,6-diamine]",63.3
4,"Cc1nc2cnc(Nc3ccnc(N4CCc5[nH]ncc5C4)n3)cc2n1C(C)C [Example 46, N-(2-(6,7-Dihydro-1H-pyrazolo[4,3-c]pyridin-5(4H)-yl)pyrimidin-4-yl)-1-isopropyl-2-methyl-1H-imidazo[4,5-c]pyridin-6-amine]",8.2
5,"Cc1c(-c2cn(C(C)C)c3cc(Nc4ccnc(-c5cnn(S(=O)(=O)C6CC6)c5)n4)ncc23)cnn1CCO [Example 438, 2-(4-(6-(2-(1-(cyclopropylsulfonyl)-1H-pyrazol-4-yl)pyrimidin-4-ylamino)-1-isopropyl-1H-pyrrolo[3,2-c]pyridin-3-yl)-5-methyl-1H-pyrazol-1-yl)ethanol]",1.06
6,"Cc1nc2cnc(Nc3ccnc(-n4ccnc4)n3)cc2n1C(C)C [Example 599, (2-Imidazol-1-ylpyrimidin-4-yl)-(1-isopropyl-2-methyl-1H-imidazo[4,5-c]pyridin-6-yl)amine]",27.5
7,"CC(C)n1c(CO)nc2cnc(Nc3ccnc(N4CC[C@@](O)(C5CC5)[C@H](F)C4)n3)cc21 (racemic) [Example 633, (3RS,4RS)-4-cyclopropyl-3-fluoro-1-(4-((2-(hydroxymethyl)-1-isopropyl-1H-imidazo[4,5-c]pyridin-6-yl)amino)pyrimidin-2-yl)piperidin-4-ol]",210
8,"CCc1ncc(-c2nccc(Nc3cc4c(cn3)nc(C)n4C(C)C)n2)s1 [Example 595, [2-(2-Ethylthiazol-5-yl)pyrimidin-4-yl]-(1-isopropyl-2-methyl-1H-imidazo[4,5-c]pyridin-6-yl)amine]",9.62
9,CC(C)n1c(CO)nc2cnc(Nc3ccnc(OCC(C)(C)S(C)(=O)=O)n3)cc21 [Example 660],171
10,"COC[C@H](C)n1c(C)nc2cnc(Nc3ccnc(N4CCC(OC)CC4)n3)cc21 [Example 490, [1-((S)-2-Methoxy-1-methylethyl)-2-methyl-1H-imidazo [4,5-c]pyridin-6-yl]-[2-(4-methoxypiperidin-1-yl)pyrimidin-4-yl]amine]",746
11,"Cc1nc2cnc(Nc3ccnc(N4CC[C@H](F)C4)n3)cc2n1C(C)C [Example 592, [2-((S)-3-Fluoropyrrolidin-1-yl)pyrimidin-4-yl]-(1-isopropyl-2-methyl-1H-imidazo[4,5-c]pyridin-6-yl)amine]",57.5
12,"Cc1nc2cnc(Nc3ccnc(NCC(F)(F)C(N)=O)n3)cc2n1C(C)C [Example 610, 2,2-Difluoro-3-[4-(1-isopropyl-2-methyl-1H-imidazo[4,5-c]pyridin-6-ylamino)pyrimidin-2-ylamino]propionamide]",13.2
13,"CCC(C)n1cc(C(=O)NC2CCOCC2)c2cnc(Nc3ccnc(-c4cnn(S(=O)(=O)C5CC5)c4)n3)cc21 (single isomer, unassigned; (+)) [Example 321, (+)-1-(sec-Butyl)-6-((2-(1-(cyclopropylsulfonyl)-1H-pyrazol-4-yl)pyrimidin-4-yl)amino)-N-(tetrahydro-2H-pyran-4-yl)-1H-pyrrolo[3,2-c]pyridine-3-carboxamide]",1.45
14,"CS[C@H]1CCN(c2nccc(Nc3cc4c(cn3)nc(C)n4C(C)C)n2)C[C@H]1F (racemic) [Example 617, [2-(±)-(cis-3-Fluoro-4-methylsulfanylpiperidin-1-yl)pyrimidin-4-yl]-(1-isopropyl-2-methyl-1H-imidazo[4,5-c]pyridin-6-yl)amine]",115
15,"COC1CCN(c2nccc(Nc3cc4c(cn3)nc(C)n4-c3ccccc3)n2)CC1 [Example 494, N-(2-(4-Methoxypiperidin-yl)pyrimidin-4-yl)-2-methyl-1-phenyl-1H-imidazo[4,5-c]pyridin-6-amine]",30.4
16,"CCN1CCN(C(=O)c2cn(C(C)C)c3cc(Nc4ccnc(N5CCC(OC)CC5)n4)ncc23)CC1 [Example 122, (4-ethylpiperazin-1-yl)(1-isopropyl-6-((2-(4-methoxypiperidin-1-yl)pyrimidin-4-yl)amino)-1H-pyrrolo[3,2-c]pyridin-3-yl)methanone]",100
17,"CCC(C)n1cc(C(=O)NC2CCOCC2)c2cnc(Nc3ccnc(N4CC[C@@H](O)[C@@H](F)C4)n3)cc21 (single isomer, unassigned) [Example 324]",2.39
18,"COC1CCN(c2nccc(Nc3cc4c(cn3)nc3n4C(C)(C)CO3)n2)CC1 [Example 532, N-(2-(4-methoxypiperidin-1-yl)pyrimidin-4-yl)-3,3-dimethyl-2,3-dihydrooxazolo[3′,2′:1,2]imidazo [4,5-c]pyridin-6-amine]",519
19,"COC1CCN(c2nccc(Nc3cc4c(cn3)nc(CO)n4C(C)C)n2)CC1 [Example 10, {1-Isopropyl-6-[2-(4-methoxypiperidin-1-yl)pyrimidin-4-ylamino]-1H-imidazo[4,5-c]pyridin-2-yl}methanol]",63.2
20,"COC1CCN(c2nccc(Nc3cc4c(cn3)nc(C)n4Cc3ccccc3)n2)CC1 [Example 356, 1-Benzyl-N-[2-(4-methoxy-1-piperidyl)pyrimidin-4-yl]-2-methyl-imidazo[4,5-c]pyridin-6-amine]",562
21,CC1CCC(n2c(CO)nc3cnc(Nc4ccnc(-c5cnn(S(=O)(=O)C6CC6)c5)n4)cc32)C1 (centres unmarked) [Example 697],16.9
22,"CCS(=O)(=O)n1cc(-c2nccc(Nc3cc4c(cn3)c(C(=O)NC3COC3)cn4C(C)C)n2)cn1 [Example 448, 6-(2-(1-(ethylsulfonyl)-1H-pyrazol-4-yl)pyrimidin-4-ylamino)-1-isopropyl-N-(oxetan-3-yl)-1H-pyrrolo[3,2-c]pyridine-3-carboxamide]",0.62
23,Cc1nc2cnc(Nc3ccnc(N4CC[C@](C)(O)[C@H](F)C4)n3)cc2n1C(C)C [Example 672],135
24,"CO[C@H]1CCN(c2nccc(Nc3cc4c(cn3)c(C(=O)NC3CCOCC3)cn4C(C)C)n2)C[C@H]1F [Example 381, 6-((2-((3R,4S)-3-fluoro-4-methoxypiperidin-1-yl)pyrimidin-4-yl)amino)-1-isopropyl-N-(tetrahydro-2H-pyran-4-yl)-1H-pyrrolo [3,2-c]pyridine-3-carboxamide]",9.29
25,"Cc1nc2cnc(Nc3ccnc(NCC(C)(C)S(C)(=O)=O)n3)cc2n1C(C)C [Example 499, N^4-(1-Isopropyl-2-methyl-1H-imidazo[4,5-c]pyridin-6-yl)-N2-(2-methyl-2-(methylsulfonyl)propyl) pyrimidine-2,4-diamine]",51.7
26,"Cc1nc2cnc(Nc3ccnc(N4Cc5cn[nH]c5C(C)(C)C4)n3)cc2n1C(C)C [Example 111, N-(2-(7,7-dimethyl-6,7-dihydro-1H-pyrazolo[4,3-c]pyridin-5(4H)-yl)pyrimidin-4-yl)-1-isopropyl-2-methyl-1H-imidazo[4,5-c]pyridin-6-amine]",18.9
